# Reference: ChEMBL document CHEMBL1649421, “New drug-like hydroxyphenylnaphthol steroidomimetics as potent and selective 17β-hydroxysteroid dehydrogenase type 1 inhibitors for the treatment of estrogen-dependent diseases” (J Med Chem, 2011)
# Tests used:
# [1] = target: T1, 17-beta-hydroxysteroid dehydrogenase type 1 (Homo sapiens) (UniProt P14061); assay: Inhibition of [3H]E1 binding to human placental 17beta-HSD1 at 100 nM after 10 mins by fluid scintillation counting
# T1 sequence (whole entry): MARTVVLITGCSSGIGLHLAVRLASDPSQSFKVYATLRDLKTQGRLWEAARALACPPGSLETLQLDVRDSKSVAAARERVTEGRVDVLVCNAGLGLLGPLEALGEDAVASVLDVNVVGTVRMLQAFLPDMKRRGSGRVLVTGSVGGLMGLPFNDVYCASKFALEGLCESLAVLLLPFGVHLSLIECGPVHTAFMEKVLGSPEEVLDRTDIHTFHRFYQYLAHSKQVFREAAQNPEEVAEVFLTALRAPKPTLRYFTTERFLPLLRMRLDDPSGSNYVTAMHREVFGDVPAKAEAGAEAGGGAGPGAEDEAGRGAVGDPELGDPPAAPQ
# [2] = target: T1, 17-beta-hydroxysteroid dehydrogenase type 1 (Homo sapiens); assay: Inhibition of [3H]E1 binding to human placental 17beta-HSD1 at 1 uM after 10 mins by fluid scintillation counting
# [3] = target: T2, 17-beta-hydroxysteroid dehydrogenase type 2 (Homo sapiens) (UniProt P37059); assay: Inhibition of [3H]E2 binding to human placental 17beta-HSD2 at 1 uM after 10 mins by fluid scintillation counting
# T2 sequence (whole entry): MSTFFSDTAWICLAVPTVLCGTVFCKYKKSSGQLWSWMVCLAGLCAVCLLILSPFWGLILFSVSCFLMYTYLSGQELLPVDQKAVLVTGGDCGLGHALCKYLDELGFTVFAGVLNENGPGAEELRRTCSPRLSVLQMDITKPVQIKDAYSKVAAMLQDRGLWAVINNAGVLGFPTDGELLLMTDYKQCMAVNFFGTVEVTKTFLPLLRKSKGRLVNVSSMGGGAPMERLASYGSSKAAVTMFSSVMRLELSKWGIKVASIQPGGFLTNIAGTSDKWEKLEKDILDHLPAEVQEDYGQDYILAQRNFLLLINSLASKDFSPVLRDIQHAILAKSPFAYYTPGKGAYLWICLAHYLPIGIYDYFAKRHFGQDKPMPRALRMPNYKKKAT
# [4] = target: T1, 17-beta-hydroxysteroid dehydrogenase type 1 (Homo sapiens); assay: Inhibition of [3H]E1 binding to human recombinant 17beta-HSD1 expressed in baculovirus-infected Sf9 cells at 100 nM after 10 mins by fluid scintillation counting
# [5] = target: T1, 17-beta-hydroxysteroid dehydrogenase type 1 (Homo sapiens); assay: Inhibition of [3H]E1 binding to human recombinant 17beta-HSD1 expressed in baculovirus-infected Sf9 cells at 1 uM after 10 mins by fluid scintillation counting
# [6] = target: T2, 17-beta-hydroxysteroid dehydrogenase type 2 (Homo sapiens); assay: Inhibition of [3H]E2 binding to human recombinant 17beta-HSD2 expressed in baculovirus-infected Sf9 cells at 100 nM after 10 mins by fluid scintillation counting
# [7] = target: T2, 17-beta-hydroxysteroid dehydrogenase type 2 (Homo sapiens); assay: Inhibition of [3H]E2 binding to human recombinant 17beta-HSD2 expressed in baculovirus-infected Sf9 cells at 1 uM after 10 mins by fluid scintillation counting
# [8] = organism: Homo sapiens; assay: Selectivity ratio of IC50 for human placental 17beta-HSD2 to IC50 for human placental 17beta-HSD1
# [9] = target: T3, 17-beta-hydroxysteroid dehydrogenase type 1 (Homo sapiens, UniProt P14061); assay: Displacement of [3H]E1 from 17beta-HSD1 in human T47D cells after 10 mins by fluid scintillation counting; assay type: cell-based
# T3 sequence (P14061 whole entry): T1 sequence (whole entry)
# [10] = target: T4, Estrogen receptor (Homo sapiens) (UniProt P03372); assay: Displacement of [3H]E2 from human recombinant ERalpha by liquid scintillation counting relative to estradiol
# T4 sequence (whole entry): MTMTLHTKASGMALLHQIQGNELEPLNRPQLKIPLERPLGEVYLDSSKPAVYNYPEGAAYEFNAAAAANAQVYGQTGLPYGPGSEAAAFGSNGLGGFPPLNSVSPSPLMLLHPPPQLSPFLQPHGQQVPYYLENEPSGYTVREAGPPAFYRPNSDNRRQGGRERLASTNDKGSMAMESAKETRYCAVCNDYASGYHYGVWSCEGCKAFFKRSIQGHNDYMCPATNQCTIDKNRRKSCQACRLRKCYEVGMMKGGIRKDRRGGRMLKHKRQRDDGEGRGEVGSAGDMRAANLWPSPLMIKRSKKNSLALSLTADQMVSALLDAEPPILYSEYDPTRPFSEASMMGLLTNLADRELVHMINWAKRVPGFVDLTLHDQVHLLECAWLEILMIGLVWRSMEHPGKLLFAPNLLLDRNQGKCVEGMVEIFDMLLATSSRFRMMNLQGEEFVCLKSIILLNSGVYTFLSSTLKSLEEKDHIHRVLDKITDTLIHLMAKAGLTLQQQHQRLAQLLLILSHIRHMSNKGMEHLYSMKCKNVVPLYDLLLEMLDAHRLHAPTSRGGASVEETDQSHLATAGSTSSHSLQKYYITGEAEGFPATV
# [11] = target: Estrogen receptor beta (Homo sapiens) (UniProt Q92731); assay: Displacement of [3H]E2 from human recombinant ERbeta by liquid scintillation counting relative to estradiol
# [12] = Apparent permeability across human Caco2 cells after 180 mins by LC-MS/MS analysis; assay type: ADME, cell-based; details: Caco-2
# [13] = target: T5, Cytochrome P450 1A2 (Homo sapiens, UniProt P05177); assay: Inhibition of human CYP1A2; assay type: ADME
# T5 sequence (P05177 whole entry): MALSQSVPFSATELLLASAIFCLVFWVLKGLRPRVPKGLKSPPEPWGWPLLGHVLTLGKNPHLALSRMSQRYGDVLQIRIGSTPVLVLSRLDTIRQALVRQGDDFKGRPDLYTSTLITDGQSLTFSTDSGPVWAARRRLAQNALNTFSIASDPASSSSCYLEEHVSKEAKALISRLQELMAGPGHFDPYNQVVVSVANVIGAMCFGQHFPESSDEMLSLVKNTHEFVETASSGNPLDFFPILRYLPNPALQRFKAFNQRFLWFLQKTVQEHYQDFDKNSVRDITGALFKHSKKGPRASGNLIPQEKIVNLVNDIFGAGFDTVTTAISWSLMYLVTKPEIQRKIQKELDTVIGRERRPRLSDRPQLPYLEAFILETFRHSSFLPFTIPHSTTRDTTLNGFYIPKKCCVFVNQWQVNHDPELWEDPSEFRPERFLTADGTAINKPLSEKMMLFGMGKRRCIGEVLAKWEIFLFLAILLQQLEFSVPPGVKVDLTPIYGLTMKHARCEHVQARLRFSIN
# [14] = target: T6, Cytochrome P450 2B6 (Homo sapiens, UniProt P20813); assay: Inhibition of human CYP2B6; assay type: ADME
# T6 sequence (P20813 whole entry): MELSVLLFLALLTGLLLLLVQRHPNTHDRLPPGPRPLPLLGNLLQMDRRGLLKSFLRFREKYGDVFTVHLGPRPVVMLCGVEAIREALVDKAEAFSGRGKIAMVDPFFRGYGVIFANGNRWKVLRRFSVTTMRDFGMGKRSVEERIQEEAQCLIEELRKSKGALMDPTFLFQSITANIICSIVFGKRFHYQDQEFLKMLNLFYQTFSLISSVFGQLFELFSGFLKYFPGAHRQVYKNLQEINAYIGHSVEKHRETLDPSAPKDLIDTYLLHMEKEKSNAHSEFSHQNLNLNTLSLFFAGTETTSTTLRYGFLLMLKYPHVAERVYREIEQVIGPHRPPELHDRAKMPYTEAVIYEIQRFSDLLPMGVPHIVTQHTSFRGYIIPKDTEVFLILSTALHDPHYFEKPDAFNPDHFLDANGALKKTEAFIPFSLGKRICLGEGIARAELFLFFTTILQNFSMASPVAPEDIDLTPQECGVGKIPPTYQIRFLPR
# [15] = target: Cytochrome P450 2C9 (Homo sapiens, UniProt P11712); assay: Inhibition of human CYP2C9; assay type: ADME
# [16] = target: Cytochrome P450 2C19 (Homo sapiens, UniProt P33261); assay: Inhibition of human CYP2C19; assay type: ADME
# [17] = target: Cytochrome P450 2D6 (Homo sapiens, UniProt P10635); assay: Inhibition of human CYP2D6; assay type: ADME
# [18] = target: Cytochrome P450 3A4 (Homo sapiens, UniProt P08684); assay: Inhibition of human CYP3A4; assay type: ADME
# [19] = target: T7, 17-beta-hydroxysteroid dehydrogenase type 2 (Homo sapiens, UniProt P37059); assay: Displacement of [3H]E2 from human placental 17beta-HSD2 after 10 mins by fluid scintillation counting
# T7 sequence (P37059 whole entry): T2 sequence (whole entry)
# [20] = Half life in Sprague-Dawley rat liver microsomes by LC-MS/MS analysis; assay type: ADME, Microsome
# [21] = target: T3, 17-beta-hydroxysteroid dehydrogenase type 1; assay: Displacement of [3H]E1 from human placental 17beta-HSD1 after 10 mins by fluid scintillation counting
# [22] = Cmax in Wistar rat at 50 mg/kg, po administered as single dose by LC-MS/MS analysis; assay type: ADME, organism-based; parameters: dose 50 mg/kg, route oral; details: in vivo
# [23] = tested on: Liver microsomes; assay: Intrinsic clearance in Sprague-Dawley rat liver microsomes after 60 mins by LC-MS/MS analysis; assay type: ADME, Microsome; details: 1 h
# [24] = tested on: Rattus norvegicus; assay: Clast in Wistar rat at 50 mg/kg, po administered as single dose by LC-MS/MS analysis; assay type: ADME, organism-based; parameters: dose 50 mg/kg, route oral; details: in vivo
# [25] = Tmax in Wistar rat at 50 mg/kg, po administered as single dose by LC-MS/MS analysis; assay type: ADME, organism-based; parameters: dose 50 mg/kg, route oral; details: in vivo
# [26] = tested on: Rattus norvegicus; assay: Tlast in Wistar rat at 50 mg/kg, po administered as single dose by LC-MS/MS analysis; assay type: ADME, organism-based; parameters: dose 50 mg/kg, route oral; details: in vivo
# [27] = Half life in Wistar rat at 50 mg/kg, po administered as single dose by LC-MS/MS analysis; assay type: ADME, organism-based; parameters: dose 50 mg/kg, route oral; details: in vivo
# [28] = AUC (0 to t) in Wistar rat at 50 mg/kg, po administered as single dose by LC-MS/MS analysis; assay type: ADME, organism-based; parameters: dose 50 mg/kg, route oral; details: plasma
# Cytochrome P450 3A4, sequence (P08684 whole entry): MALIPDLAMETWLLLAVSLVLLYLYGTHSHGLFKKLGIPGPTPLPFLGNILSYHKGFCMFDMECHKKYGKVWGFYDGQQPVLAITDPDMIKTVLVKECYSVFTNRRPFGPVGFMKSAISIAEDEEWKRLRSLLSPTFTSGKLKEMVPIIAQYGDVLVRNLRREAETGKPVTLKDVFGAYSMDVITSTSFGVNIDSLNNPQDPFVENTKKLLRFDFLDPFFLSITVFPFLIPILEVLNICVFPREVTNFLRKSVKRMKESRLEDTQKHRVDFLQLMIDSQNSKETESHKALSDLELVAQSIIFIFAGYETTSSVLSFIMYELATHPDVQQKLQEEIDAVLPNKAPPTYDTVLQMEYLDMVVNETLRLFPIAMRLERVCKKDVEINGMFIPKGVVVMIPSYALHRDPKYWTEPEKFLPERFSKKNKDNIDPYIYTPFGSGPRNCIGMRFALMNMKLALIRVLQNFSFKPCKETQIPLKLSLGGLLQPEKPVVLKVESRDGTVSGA
# Cytochrome P450 2C9, sequence (P11712 whole entry): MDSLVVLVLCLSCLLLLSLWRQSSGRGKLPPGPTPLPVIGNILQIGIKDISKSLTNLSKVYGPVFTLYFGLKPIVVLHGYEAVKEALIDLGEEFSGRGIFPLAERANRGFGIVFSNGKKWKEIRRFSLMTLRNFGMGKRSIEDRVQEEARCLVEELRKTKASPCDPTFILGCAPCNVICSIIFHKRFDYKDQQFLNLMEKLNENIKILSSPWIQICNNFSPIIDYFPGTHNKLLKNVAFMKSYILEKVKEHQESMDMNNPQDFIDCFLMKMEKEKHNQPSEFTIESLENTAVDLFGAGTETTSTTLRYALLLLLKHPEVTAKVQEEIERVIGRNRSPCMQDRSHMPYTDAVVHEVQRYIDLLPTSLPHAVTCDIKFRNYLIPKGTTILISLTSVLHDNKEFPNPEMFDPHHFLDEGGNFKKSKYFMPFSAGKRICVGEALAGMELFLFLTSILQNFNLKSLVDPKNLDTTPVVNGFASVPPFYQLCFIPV
# Cytochrome P450 2D6, sequence (P10635 whole entry): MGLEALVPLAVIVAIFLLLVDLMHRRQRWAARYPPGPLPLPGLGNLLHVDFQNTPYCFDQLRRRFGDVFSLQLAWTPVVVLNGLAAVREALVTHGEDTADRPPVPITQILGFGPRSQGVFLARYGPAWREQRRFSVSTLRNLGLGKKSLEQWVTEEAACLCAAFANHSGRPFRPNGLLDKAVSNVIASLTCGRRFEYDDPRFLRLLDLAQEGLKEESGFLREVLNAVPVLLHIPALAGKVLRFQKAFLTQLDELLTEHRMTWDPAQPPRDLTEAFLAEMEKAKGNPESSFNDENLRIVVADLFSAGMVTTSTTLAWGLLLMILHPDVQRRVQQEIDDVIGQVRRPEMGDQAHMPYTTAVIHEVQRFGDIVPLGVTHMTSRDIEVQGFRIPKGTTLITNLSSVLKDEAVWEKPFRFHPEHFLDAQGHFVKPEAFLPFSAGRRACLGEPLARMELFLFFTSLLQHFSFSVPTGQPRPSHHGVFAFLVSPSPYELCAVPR
# Estrogen receptor beta (Homo sapiens), sequence (Q92731 whole entry): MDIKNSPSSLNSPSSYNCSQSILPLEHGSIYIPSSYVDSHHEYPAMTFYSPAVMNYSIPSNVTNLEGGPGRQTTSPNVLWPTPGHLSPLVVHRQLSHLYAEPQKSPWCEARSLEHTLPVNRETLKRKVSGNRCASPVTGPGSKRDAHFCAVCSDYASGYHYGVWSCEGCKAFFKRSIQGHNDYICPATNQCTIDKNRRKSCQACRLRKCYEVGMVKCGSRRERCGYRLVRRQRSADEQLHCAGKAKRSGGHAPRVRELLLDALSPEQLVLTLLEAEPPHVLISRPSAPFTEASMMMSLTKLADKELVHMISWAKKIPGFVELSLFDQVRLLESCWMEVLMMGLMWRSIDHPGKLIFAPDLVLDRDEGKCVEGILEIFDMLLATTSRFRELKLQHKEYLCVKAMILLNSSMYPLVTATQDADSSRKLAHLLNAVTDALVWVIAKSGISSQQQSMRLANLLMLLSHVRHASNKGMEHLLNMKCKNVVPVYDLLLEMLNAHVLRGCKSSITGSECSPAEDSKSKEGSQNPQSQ
# Cytochrome P450 2C19, sequence (P33261 whole entry): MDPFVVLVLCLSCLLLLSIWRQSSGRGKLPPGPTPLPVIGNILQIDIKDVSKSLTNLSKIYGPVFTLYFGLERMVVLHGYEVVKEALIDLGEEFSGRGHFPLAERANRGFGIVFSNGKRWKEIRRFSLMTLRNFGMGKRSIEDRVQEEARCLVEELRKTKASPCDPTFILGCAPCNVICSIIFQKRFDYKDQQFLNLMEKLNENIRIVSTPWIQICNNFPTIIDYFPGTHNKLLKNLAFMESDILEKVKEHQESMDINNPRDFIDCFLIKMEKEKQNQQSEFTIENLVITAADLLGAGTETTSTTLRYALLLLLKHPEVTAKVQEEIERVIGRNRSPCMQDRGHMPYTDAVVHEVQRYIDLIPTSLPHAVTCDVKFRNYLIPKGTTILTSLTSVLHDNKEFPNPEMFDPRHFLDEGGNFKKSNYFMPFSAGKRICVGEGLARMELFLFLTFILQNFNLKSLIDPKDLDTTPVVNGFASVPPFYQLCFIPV
SMILES,inhibition [2],inhibition [3],inhibition [4],inhibition [5],inhibition [6],inhibition [7],RBA [10],RBA [11],also measured
Oc1cccc(-c2ccc3c(-c4cncnc4)c(O)ccc3c2)c1,41%,85%,,,,,,,inhibition [1]: < 10%
O=C(O)c1cccc(-c2c(O)ccc3cc(-c4cccc(O)c4)ccc23)c1,,,45%,80%,< 10%,34%,,,
Oc1cccc(-c2ccc3c(-c4ccccc4)c(O)ccc3c2)c1,,,,,22%,77%,0.01%,0.01%,Ratio IC50 [8]: 27; IC50 [9]: 281 nM; Papp at 3 h [12]: 9.3 ×10⁻⁶ cm/s; IC50 [13]: 7160 nM; IC50 [14]: 7960 nM; IC50 [15]: 1640 nM; IC50 [16]: 1410 nM; IC50 [17]: 15500 nM; IC50 [18]: 2770 nM
COc1ccc(-c2c(O)ccc3cc(-c4cccc(O)c4)ccc23)cn1,,,86%,89%,24%,67%,0.01%,< 0.01%,IC50 [19]: 530 nM; half-life [20]: 4.82 h; Papp at 3 h [12]: 8 ×10⁻⁶ cm/s
Oc1ccc(-c2ccc3c(-c4cncnc4)c(O)ccc3c2)cc1,35%,22%,,,,,,,
Oc1cccc(-c2ccc3c(-c4cncnc4)cccc3c2)c1,< 10%,< 10%,,,,,,,
O=C(O)CCC(=O)Nc1cccc(-c2c(O)ccc3cc(-c4cccc(O)c4)ccc23)c1,,,< 10%,62%,24%,68%,,,
CC(=O)Nc1cccc(-c2c(O)ccc3cc(-c4cccc(O)c4)ccc23)c1,,,35%,82%,24%,64%,,,
Oc1cccc(-c2ccc3c(-c4ccncc4)c(O)ccc3c2)c1,,,74%,86%,12%,49%,0.01%,< 0.01%,IC50 [21]: 64 nM
Oc1ccccc1-c1ccc2c(-c3cncnc3)cccc2c1,< 10%,< 10%,,,,,,,
COc1ncc(-c2c(O)ccc3cc(-c4cccc(O)c4)ccc23)c(OC)n1,79%,9%,,,,,,,inhibition [1]: 31%
Oc1cccc(-c2ccc3cc(O)ccc3c2)c1,,,,,,,0.1%,0.1%,Ratio IC50 [8]: 49; IC50 [9]: 229 nM
Cn1cc(-c2c(O)ccc3cc(-c4cccc(O)c4)ccc23)cn1,71%,24%,,,,,,,inhibition [1]: 28%
Oc1cccc(-c2ccc3c(-c4ccc5[nH]ccc5c4)c(O)ccc3c2)c1,87%,19%,,,,,,,inhibition [1]: 50%
Nc1cccc(-c2c(O)ccc3cc(-c4cccc(O)c4)ccc23)c1,,,74%,87%,< 10%,39%,0.01%,< 0.01%,Cmax [22]: 44 ng/mL; IC50 [21]: 53 nM; half-life [20]: 0.833 h; CL [23]: 93 µL/min; Papp at 3 h [12]: 16 ×10⁻⁶ cm/s; IC50 [13]: 10500 nM; IC50 [14]: 10400 nM; IC50 [15]: 1250 nM; IC50 [16]: 680 nM; IC50 [17]: 40000 nM; IC50 [18]: 1070 nM; Cz [24]: 14 ng/mL; Tmax [25]: 2 h; tz [26]: 8 h; half-life [27]: 1.6 h; AUC(0-t) [28]: 337 ng·h/mL
Oc1ccccc1-c1ccc2c(-c3cncnc3)c(O)ccc2c1,< 10%,< 10%,,,,,,,
Oc1cccc(-c2ccc3c(-c4ccoc4)c(O)ccc3c2)c1,,,83%,89%,61%,92%,0.01%,0.01%,IC50 [21]: 70 nM; Ratio IC50 [8]: 8
Oc1ccc2cc(-c3ccccc3)ccc2c1-c1cncnc1,22%,< 10%,,,,,,,
Oc1cccc(-c2ccc3c(-c4cccc(O)c4)c(O)ccc3c2)c1,,,83%,93%,< 10%,40%,0.01%,0.01%,IC50 [21]: 36 nM; Ratio IC50 [8]: 27; IC50 [9]: 115 nM; IC50 [13]: 19000 nM; IC50 [14]: 11800 nM; IC50 [15]: 270 nM; IC50 [16]: 6030 nM; IC50 [17]: 24800 nM; IC50 [18]: 40 nM
Oc1cccc(-c2ccc3c(-c4ccc(N5CCOCC5)cc4)c(O)ccc3c2)c1,,,32%,65%,12%,32%,,,
